Test results taken from ChEMBL document CHEMBL1201862, “PubChem BioAssay data set” (2004).
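Five concentrations, 48 hours, 96-well plates. Here, GI50 denotes the concentration required for 50% inhibition of growth.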 Active and inactive are the calls of the source. No stated cut-off is given here; in the data, active = GI50 up to about 1.1 µM and inactive = higher.

Key:
Assay in all cases: NCI-60 cell line screen, 48 h
SF-268 = tested on: SF-268
SK-MEL-28 = tested on: SK-MEL-28
OVCAR-4 = tested on: OVCAR-4
NCI-H226 = tested on: NCI-H226
UO-31 = tested on: UO-31
M14 = tested on: M14
HCT-116 = tested on: HCT-116
SN12C = tested on: SN12C
EKVX = tested on: EKVX
COLO 205 = tested on: COLO 205
OVCAR-8 = tested on: OVCAR-8
HL-60 = tested on: HL-60
RPMI-8226 = tested on: RPMI-8226
SF-295 = tested on: SF-295
786-0 = tested on: 786-0
SK-MEL-2 = tested on: SK-MEL-2
OVCAR-3 = tested on: OVCAR-3
HOP-92 = tested on: HOP-92
IGROV-1 = tested on: IGROV-1

Measured: GI50

O=C(CSc1nnc(-c2ccc(/N=C\c3ccc(Cl)cc3)cc2)o1)Nc1cccc(Cl)c1
inactive: SF-268 > 100 µM | SK-MEL-28 > 100 µM | OVCAR-4 > 100 µM | NCI-H226 > 100 µM | UO-31 > 100 µM | M14 > 100 µM | HCT-116 > 100 µM | SN12C > 100 µM | EKVX > 100 µM | COLO 205 > 100 µM | OVCAR-8 > 100 µM | HL-60 > 100 µM | RPMI-8226 70 µM | SF-295 > 100 µM | 786-0 > 100 µM | SK-MEL-2 > 100 µM

COc1cc2c(cc1C)NC(=O)/C2=C\c1cccnc1
inactive: SF-268 19.4 µM | SK-MEL-28 50.4 µM | OVCAR-4 18.7 µM | UO-31 15.6 µM | OVCAR-3 13.7 µM | HOP-92 25.1 µM | M14 12.9 µM | HCT-116 15.1 µM | SN12C 15.7 µM | EKVX 19.8 µM | COLO 205 16.5 µM | OVCAR-8 15.5 µM | HL-60 5 µM | RPMI-8226 26.9 µM | SF-295 14.7 µM | 786-0 25 µM | SK-MEL-2 18.7 µM

CC(=O)Nc1ccc(C2CC(c3ccc([N+](=O)[O-])cc3)=Nc3ccccc3S2)cc1 (stereo not given)
inactive: IGROV-1 25.8 µM | SF-268 24 µM | SK-MEL-28 18.7 µM | OVCAR-4 19.7 µM | NCI-H226 26.9 µM | UO-31 13.8 µM | OVCAR-3 23.2 µM | M14 13.5 µM | HCT-116 9.75 µM | SN12C 16.6 µM | EKVX 36.8 µM | COLO 205 36.8 µM | OVCAR-8 16.6 µM | HL-60 21.3 µM | SF-295 18.6 µM | 786-0 17.4 µM | SK-MEL-2 17.9 µM

O=[N+]([O-])c1cc(Cl)ccc1OCc1ccccc1
inactive: IGROV-1 > 100 µM | SF-268 > 100 µM | SK-MEL-28 > 100 µM | OVCAR-4 > 100 µM | OVCAR-3 33 µM | HOP-92 34 µM | M14 83.6 µM | HCT-116 55.6 µM | SN12C > 100 µM | EKVX 27.2 µM | COLO 205 > 100 µM | OVCAR-8 > 100 µM | HL-60 28.4 µM | RPMI-8226 67 µM | SF-295 56.6 µM | 786-0 59 µM | SK-MEL-2 > 100 µM

Cc1ccc2[nH]c(=O)c(C(C#N)c3ccccc3)nc2c1 (stereo not given)
inactive: IGROV-1 34.2 µM | SF-268 32.6 µM | SK-MEL-28 60.4 µM | OVCAR-4 30.1 µM | NCI-H226 30.1 µM | UO-31 27.9 µM | OVCAR-3 23.6 µM | HOP-92 32.7 µM | M14 41.8 µM | HCT-116 33.7 µM | SN12C 49.5 µM | EKVX 30.5 µM | COLO 205 27 µM | RPMI-8226 15.6 µM | SF-295 30.4 µM | 786-0 41.8 µM | SK-MEL-2 20 µM

O=c1c2cc(-c3ccccc3)sc2nc2sc(-c3ccccc3)nn12
inactive: IGROV-1 > 100 µM | SF-268 > 100 µM | OVCAR-4 > 100 µM | NCI-H226 > 100 µM | UO-31 > 100 µM | OVCAR-3 > 100 µM | HOP-92 > 100 µM | M14 > 100 µM | HCT-116 > 100 µM | SN12C > 100 µM | EKVX > 100 µM | COLO 205 > 100 µM | OVCAR-8 > 100 µM | HL-60 > 100 µM | RPMI-8226 > 100 µM | SF-295 > 100 µM | 786-0 > 100 µM | SK-MEL-2 > 100 µM

Cc1[nH]c2ccccc2c1C1Cc2ccccc2N1C(=O)/C=C/C(=O)O (stereo not given)
inactive: IGROV-1 > 100 µM | SF-268 > 100 µM | OVCAR-4 > 100 µM | NCI-H226 > 100 µM | UO-31 > 100 µM | OVCAR-3 > 100 µM | M14 > 100 µM | HCT-116 > 100 µM | SN12C > 100 µM | EKVX > 100 µM | COLO 205 > 100 µM | OVCAR-8 > 100 µM | HL-60 > 100 µM | SF-295 > 100 µM | 786-0 > 100 µM | SK-MEL-2 > 100 µM

Cc1ccc(NC(=O)CC(=O)n2nc(C)c(/N=N/c3ccccc3C(=O)O)c2C)cc1
inactive: IGROV-1 > 100 µM | SF-268 > 100 µM | SK-MEL-28 > 100 µM | OVCAR-4 > 100 µM | UO-31 > 100 µM | OVCAR-3 > 100 µM | M14 > 100 µM | HCT-116 > 100 µM | SN12C > 100 µM | EKVX > 100 µM | COLO 205 > 100 µM | OVCAR-8 > 100 µM | HL-60 > 100 µM | RPMI-8226 > 100 µM | SF-295 > 100 µM | 786-0 > 100 µM | SK-MEL-2 > 100 µM

Cn1nc(-c2ccccc2)c(C(=O)/C=C/c2ccccc2)c(N2CCOCC2)c1=O
inactive: IGROV-1 23.4 µM | SF-268 16.9 µM | SK-MEL-28 > 10 µM | UO-31 14.9 µM | HOP-92 5.06 µM | M14 20.9 µM | HCT-116 14.4 µM | SN12C 21.4 µM | EKVX > 10 µM | COLO 205 19.5 µM | OVCAR-8 28.4 µM | HL-60 12.8 µM | RPMI-8226 14.6 µM | 786-0 14.2 µM

CC(C)(C)C1=C(Br)C(OC(=O)C(F)(F)F)(C(C)(C)C)OP1(=O)c1ccccc1 (stereo not given)
inactive: IGROV-1 35.7 µM | SF-268 61.4 µM | SK-MEL-28 > 100 µM | OVCAR-4 49.1 µM | NCI-H226 40.5 µM | UO-31 52.5 µM | OVCAR-3 31.9 µM | HOP-92 36.5 µM | M14 36.1 µM | HCT-116 33 µM | SN12C 39 µM | EKVX 23.8 µM | COLO 205 18.5 µM | OVCAR-8 34.7 µM | HL-60 24.8 µM | SF-295 35.3 µM | 786-0 40.2 µM | SK-MEL-2 29.2 µM

Cc1ccccc1N1C(=O)/C(=C/c2ccc(N(CCC#N)CCC#N)cc2)N=C1c1cc([N+](=O)[O-])ccc1Cl
inactive: IGROV-1 > 100 µM | SF-268 > 100 µM | SK-MEL-28 > 100 µM | OVCAR-4 > 100 µM | NCI-H226 > 100 µM | UO-31 > 100 µM | OVCAR-3 59.3 µM | M14 > 100 µM | SN12C > 100 µM | COLO 205 18.8 µM | HL-60 35 µM | RPMI-8226 21 µM | SF-295 31 µM | 786-0 84.5 µM | SK-MEL-2 > 100 µM

CCOC(=O)NC(=O)c1cn(CCN2CCN(C(=O)NCCCCCCNC(=O)N3CCN(CCn4cc(C(=O)NC(=O)OCC)c(=O)n(CCN(CC)CC)c4=O)CC3)CC2)c(=O)n(CCC(CC)CC)c1=O
inactive: IGROV-1 > 100 µM | SF-268 > 100 µM | SK-MEL-28 > 100 µM | OVCAR-4 > 100 µM | UO-31 > 100 µM | OVCAR-3 > 100 µM | HOP-92 > 100 µM | M14 > 100 µM | HCT-116 > 100 µM | SN12C > 100 µM | EKVX > 100 µM | COLO 205 > 100 µM | OVCAR-8 > 100 µM | HL-60 > 100 µM | RPMI-8226 > 100 µM | SF-295 > 100 µM | 786-0 > 100 µM | SK-MEL-2 > 100 µM
